According to US20050112573A1, “Method of detecting toxic substance” (priority 2001, published 2005):

System: yeast genes (level of expressed mRNA)
Assay: DNA chip analysis of expressed mRNA of yeast genes after 2 h culture with a toxic chemical substance
Assay type: cell-based, Saccharomyces cerevisiae S288C
Details: for The level of expressed mRNA in the presence of chemical substance/ in its absence, gene YDL078C: yeast gene YDL078C; for The level of expressed mRNA in the presence of chemical substance/ (ratio to absence of chemical substance): stress protein genes, DNA chip
Summary of the method: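 S. cerevisiae S288C in YPD at 25 °C was exposed at log phase for 2 h to a growth-inhibiting, non-lethal concentration of the chemical. Poly(A) mRNA was reverse-transcribed with Cy3- or Cy5-dUTP and hybridized to a whole-genome yeast DNA chip (65 °C, >12 h). Values are fluorescence ratios versus untreated cells.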

S=C([S-])NCCNC(=S)[S-].[Zn+2] [(11), zinc N,N′-ethylenebis(dithiocarbamate)]
The level of expressed mRNA in the presence of chemical substance/ in its absence, gene YDL078C (energy system protein genes, 2 h culture with the chemical, ratio to control without chemical): 1.7
The level of expressed mRNA in the presence of chemical substance/ in its absence, gene YDL078C (ratio of DNA chip fluorescence intensity to that without chemical substance): 1.7
The level of expressed mRNA in the presence of chemical substance/ (in its absence), gene YDL215C (yeast gene YDL215C, ratio of DNA chip fluorescence intensity to that without chemical substance): 0.8
The level of expressed mRNA in the presence of chemical substance/The level of expressed mRNA in the absence of chemical substance (yeast gene YDL238C): 1.1
The level of expressed mRNA in the presence of chemical substance/The level of expressed mRNA in the absence of chemical substance (yeast gene YDR055W): 2.2
The level of expressed mRNA in the presence of chemical substance/ (in its absence), gene YDR073W (yeast gene YDR073W, ratio of DNA chip fluorescence intensity to that without chemical substance): 1.0
The level of expressed mRNA in the presence of chemical substance/ in its absence, gene YDR079W (yeast gene YDR079W, energy system protein genes, 2 h culture with the chemical, ratio to control without chemical): 1.3
The level of expressed mRNA in the presence of chemical substance/ (ratio to absence), gene YDR079W (yeast gene YDR079W, mitochondria-located protein genes, 2 h culture with chemical): 1.3
The level of expressed mRNA in the presence of chemical substance/The level of expressed mRNA in the absence of chemical substance (yeast gene YDR084C): 0.7
The level of expressed mRNA in the presence of chemical substance/The level of expressed mRNA in the absence of chemical substance (yeast gene YDR085C): 1.7
The level of expressed mRNA in the presence of chemical substance/The level of expressed mRNA in the absence of chemical substance (yeast gene YDR104C): 1.0
The level of expressed mRNA in the presence of chemical substance/The level of expressed mRNA in the absence of chemical substance (yeast gene YDR115W): 1.2
The level of expressed mRNA in the presence of chemical substance/The level of expressed mRNA in the absence of chemical substance (yeast gene YDR259C): 1.2
The level of expressed mRNA in the presence of chemical substance/ (in its absence), gene YDR297W (yeast gene YDR297W, ratio of DNA chip fluorescence intensity to that without chemical substance): 1.4
The level of expressed mRNA in the presence of chemical substance/The level of expressed mRNA in the absence of chemical substance (yeast gene YDR315C): 1.1
The level of expressed mRNA in the presence of chemical substance/The level of expressed mRNA in the absence of chemical substance (yeast gene YDR358W): 1.0
The level of expressed mRNA in the presence of chemical substance/ (ratio to absence), gene YDR377W (yeast gene YDR377W, mitochondria-located protein genes, 2 h culture with chemical): 1.4
The level of expressed mRNA in the presence of chemical substance/ (in its absence), gene YDR387C (yeast gene YDR387C, ratio of DNA chip fluorescence intensity to that without chemical substance): 2.0
The level of expressed mRNA in the presence of chemical substance/The level of expressed mRNA in the absence of chemical substance (yeast gene YDR388W): 1.6
The level of expressed mRNA in the presence of chemical substance/The level of expressed mRNA in the absence of chemical substance (yeast gene YDR432W): 0.6
The level of expressed mRNA in the presence of chemical substance/The level of expressed mRNA in the absence of chemical substance (yeast gene YDR481C): 1.2
The level of expressed mRNA in the presence of chemical substance/The level of expressed mRNA in the absence of chemical substance (yeast gene YDR510W): 1.6
The level of expressed mRNA in the presence of chemical substance/ (ratio to absence of chemical substance) (yeast gene YEL039C): 1.7
The level of expressed mRNA in the presence of chemical substance/The level of expressed mRNA in the absence of chemical substance (yeast gene YEL042W): 1.6
The level of expressed mRNA in the presence of chemical substance/The level of expressed mRNA in the absence of chemical substance (yeast gene YEL066W): 1.9
The level of expressed mRNA in the presence of chemical substance/ (in its absence), gene YER015W (yeast gene YER015W, ratio of DNA chip fluorescence intensity to that without chemical substance): 1.0
The level of expressed mRNA in the presence of chemical substance/The level of expressed mRNA in the absence of chemical substance (yeast gene YER039C): 1.2
The level of expressed mRNA in the presence of chemical substance/ (ratio to absence of chemical substance) (yeast gene YER057C): 1.8
The level of expressed mRNA in the presence of chemical substance/The level of expressed mRNA in the absence of chemical substance (yeast gene YER107C): 0.7
The level of expressed mRNA in the presence of chemical substance/The level of expressed mRNA in the absence of chemical substance (yeast gene YER130C): 0.9
The level of expressed mRNA in the presence of chemical substance/The level of expressed mRNA in the absence of chemical substance (yeast gene YFL028C): 1.3
The level of expressed mRNA in the presence of chemical substance/The level of expressed mRNA in the absence of chemical substance (yeast gene YFL043C): 1.1
The level of expressed mRNA in the presence of chemical substance/ (in its absence), gene YGL035C (yeast gene YGL035C, ratio of DNA chip fluorescence intensity to that without chemical substance): 1.3
The level of expressed mRNA in the presence of chemical substance/ (in its absence), gene YGL115W (yeast gene YGL115W, ratio of DNA chip fluorescence intensity to that without chemical substance): 1.0
The level of expressed mRNA in the presence of chemical substance/ (ratio to absence of chemical substance) (yeast gene YGL115W): 1.0
The level of expressed mRNA in the presence of chemical substance/The level of expressed mRNA in the absence of chemical substance (yeast gene YGL158W): 0.2
The level of expressed mRNA in the presence of chemical substance/ (ratio to absence), gene YGL187C (yeast gene YGL187C, mitochondria-located protein genes, 2 h culture with chemical): 0.7
The level of expressed mRNA in the presence of chemical substance/ (in its absence), gene YGL205W (yeast gene YGL205W, ratio of DNA chip fluorescence intensity to that without chemical substance): 0.4
The level of expressed mRNA in the presence of chemical substance/The level of expressed mRNA in the absence of chemical substance (yeast gene YGL229C): 1.1
The level of expressed mRNA in the presence of chemical substance/ in its absence, gene YGR062C (yeast gene YGR062C, energy system protein genes, 2 h culture with the chemical, ratio to control without chemical): 1.6
The level of expressed mRNA in the presence of chemical substance/ (ratio to absence), gene YGR062C (yeast gene YGR062C, mitochondria-located protein genes, 2 h culture with chemical): 1.6
The level of expressed mRNA in the presence of chemical substance/ (in its absence), gene YGR096W (yeast gene YGR096W, ratio of DNA chip fluorescence intensity to that without chemical substance): 0.8
The level of expressed mRNA in the presence of chemical substance/The level of expressed mRNA in the absence of chemical substance (yeast gene YGR136W): 1.3
The level of expressed mRNA in the presence of chemical substance/The level of expressed mRNA in the absence of chemical substance (yeast gene YGR189C): 1.5
The level of expressed mRNA in the presence of chemical substance/The level of expressed mRNA in the absence of chemical substance (yeast gene YGR213C): 1.6
The level of expressed mRNA in the presence of chemical substance/The level of expressed mRNA in the absence of chemical substance (yeast gene YGR257C): 1.2
The level of expressed mRNA in the presence of chemical substance/ (in its absence), gene YGR287C (yeast gene YGR287C, ratio of DNA chip fluorescence intensity to that without chemical substance): 1.5
The level of expressed mRNA in the presence of chemical substance/ (in its absence), gene YGR288W (yeast gene YGR288W, ratio of DNA chip fluorescence intensity to that without chemical substance): 1.3
The level of expressed mRNA in the presence of chemical substance/ (ratio to absence of chemical substance) (yeast gene YHL028W): 0.7
The level of expressed mRNA in the presence of chemical substance/ (ratio to absence of chemical substance) (yeast gene YHL046C): 0.4
The level of expressed mRNA in the presence of chemical substance/The level of expressed mRNA in the absence of chemical substance (yeast gene YHR004C): 0.8
The level of expressed mRNA in the presence of chemical substance/The level of expressed mRNA in the absence of chemical substance (yeast gene YHR071W): 1.8
The level of expressed mRNA in the presence of chemical substance/The level of expressed mRNA in the absence of chemical substance (yeast gene YHR139C): 3.5
The level of expressed mRNA in the presence of chemical substance/The level of expressed mRNA in the absence of chemical substance (yeast gene YHR142W): 1.1
The level of expressed mRNA in the presence of chemical substance/ (in its absence), gene YHR210C (yeast gene YHR210C, ratio of DNA chip fluorescence intensity to that without chemical substance): 1.5
The level of expressed mRNA in the presence of chemical substance/ (in its absence), gene YIL006W (yeast gene YIL006W, ratio of DNA chip fluorescence intensity to that without chemical substance): 1.0
The level of expressed mRNA in the presence of chemical substance/ (ratio to absence of chemical substance) (yeast gene YIL011W): 2.5
